Data from publication PMC6478789, “A chemical toolbox for the study of bromodomains and epigenetic signaling” (Nature Communications, 2019).

Assays:
EP300 = EP300 (Homo sapiens, UniProt Q09472); test: Histone acetyltransferase (HAT) activity assay; assay type: biochemical;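 also: selectivity screen of bromodomain probe compounds against histone acetyltransferases, with enzyme activity given in percent for compounds tested at 1 and 10 µM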
HAT1 = target: T1, HAT1 (Homo sapiens, UniProt O14929); test: Histone acetyltransferase (HAT) activity assay; assay type: biochemical;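 also: HAT selectivity screen of BRD probe compounds, enzyme activity in % measured with compound at 1 µM and 10 µM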
T1 sequence (O14929 1-419): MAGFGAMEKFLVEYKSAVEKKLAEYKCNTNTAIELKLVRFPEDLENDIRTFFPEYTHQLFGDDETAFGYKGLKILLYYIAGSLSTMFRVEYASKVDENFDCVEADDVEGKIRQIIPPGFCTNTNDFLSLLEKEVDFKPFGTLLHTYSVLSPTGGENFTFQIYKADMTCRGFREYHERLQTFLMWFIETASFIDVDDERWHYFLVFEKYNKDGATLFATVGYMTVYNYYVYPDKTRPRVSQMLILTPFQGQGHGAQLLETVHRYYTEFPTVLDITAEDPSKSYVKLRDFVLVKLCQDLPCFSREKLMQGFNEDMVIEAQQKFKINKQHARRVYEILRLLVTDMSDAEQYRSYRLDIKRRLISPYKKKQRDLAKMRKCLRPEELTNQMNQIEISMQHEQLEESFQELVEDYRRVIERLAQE

MYST1 = target: T2, MYST1 (Homo sapiens, UniProt Q9H7Z6); test: Histone acetyltransferase (HAT) activity assay; assay type: biochemical;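 also: selectivity screen across a panel of histone acetyltransferases, with compounds tested at 1 and 10 µM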
T2 sequence (Q9H7Z6 1-458): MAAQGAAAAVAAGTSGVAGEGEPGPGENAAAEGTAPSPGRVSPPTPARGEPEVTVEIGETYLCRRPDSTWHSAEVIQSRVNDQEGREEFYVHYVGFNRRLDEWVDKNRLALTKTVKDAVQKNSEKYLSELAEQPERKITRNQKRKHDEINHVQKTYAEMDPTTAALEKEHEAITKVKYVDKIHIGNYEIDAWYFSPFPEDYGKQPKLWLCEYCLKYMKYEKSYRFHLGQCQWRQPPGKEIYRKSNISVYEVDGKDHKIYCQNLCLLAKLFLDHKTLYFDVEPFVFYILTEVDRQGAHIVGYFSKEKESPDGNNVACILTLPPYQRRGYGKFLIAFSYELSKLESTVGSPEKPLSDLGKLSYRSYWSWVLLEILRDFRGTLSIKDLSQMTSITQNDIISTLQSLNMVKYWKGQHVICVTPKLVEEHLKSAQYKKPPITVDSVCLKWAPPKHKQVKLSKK

MYST3 = MYST3 (Homo sapiens, UniProt Q92794); test: Histone acetyltransferase (HAT) activity assay; assay type: biochemical;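 also: selectivity screen of bromodomain probe compounds across a panel of histone acetyltransferases, read out as enzyme activity in %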
Chain of MYST3 (Q92794 whole entry, species assumed): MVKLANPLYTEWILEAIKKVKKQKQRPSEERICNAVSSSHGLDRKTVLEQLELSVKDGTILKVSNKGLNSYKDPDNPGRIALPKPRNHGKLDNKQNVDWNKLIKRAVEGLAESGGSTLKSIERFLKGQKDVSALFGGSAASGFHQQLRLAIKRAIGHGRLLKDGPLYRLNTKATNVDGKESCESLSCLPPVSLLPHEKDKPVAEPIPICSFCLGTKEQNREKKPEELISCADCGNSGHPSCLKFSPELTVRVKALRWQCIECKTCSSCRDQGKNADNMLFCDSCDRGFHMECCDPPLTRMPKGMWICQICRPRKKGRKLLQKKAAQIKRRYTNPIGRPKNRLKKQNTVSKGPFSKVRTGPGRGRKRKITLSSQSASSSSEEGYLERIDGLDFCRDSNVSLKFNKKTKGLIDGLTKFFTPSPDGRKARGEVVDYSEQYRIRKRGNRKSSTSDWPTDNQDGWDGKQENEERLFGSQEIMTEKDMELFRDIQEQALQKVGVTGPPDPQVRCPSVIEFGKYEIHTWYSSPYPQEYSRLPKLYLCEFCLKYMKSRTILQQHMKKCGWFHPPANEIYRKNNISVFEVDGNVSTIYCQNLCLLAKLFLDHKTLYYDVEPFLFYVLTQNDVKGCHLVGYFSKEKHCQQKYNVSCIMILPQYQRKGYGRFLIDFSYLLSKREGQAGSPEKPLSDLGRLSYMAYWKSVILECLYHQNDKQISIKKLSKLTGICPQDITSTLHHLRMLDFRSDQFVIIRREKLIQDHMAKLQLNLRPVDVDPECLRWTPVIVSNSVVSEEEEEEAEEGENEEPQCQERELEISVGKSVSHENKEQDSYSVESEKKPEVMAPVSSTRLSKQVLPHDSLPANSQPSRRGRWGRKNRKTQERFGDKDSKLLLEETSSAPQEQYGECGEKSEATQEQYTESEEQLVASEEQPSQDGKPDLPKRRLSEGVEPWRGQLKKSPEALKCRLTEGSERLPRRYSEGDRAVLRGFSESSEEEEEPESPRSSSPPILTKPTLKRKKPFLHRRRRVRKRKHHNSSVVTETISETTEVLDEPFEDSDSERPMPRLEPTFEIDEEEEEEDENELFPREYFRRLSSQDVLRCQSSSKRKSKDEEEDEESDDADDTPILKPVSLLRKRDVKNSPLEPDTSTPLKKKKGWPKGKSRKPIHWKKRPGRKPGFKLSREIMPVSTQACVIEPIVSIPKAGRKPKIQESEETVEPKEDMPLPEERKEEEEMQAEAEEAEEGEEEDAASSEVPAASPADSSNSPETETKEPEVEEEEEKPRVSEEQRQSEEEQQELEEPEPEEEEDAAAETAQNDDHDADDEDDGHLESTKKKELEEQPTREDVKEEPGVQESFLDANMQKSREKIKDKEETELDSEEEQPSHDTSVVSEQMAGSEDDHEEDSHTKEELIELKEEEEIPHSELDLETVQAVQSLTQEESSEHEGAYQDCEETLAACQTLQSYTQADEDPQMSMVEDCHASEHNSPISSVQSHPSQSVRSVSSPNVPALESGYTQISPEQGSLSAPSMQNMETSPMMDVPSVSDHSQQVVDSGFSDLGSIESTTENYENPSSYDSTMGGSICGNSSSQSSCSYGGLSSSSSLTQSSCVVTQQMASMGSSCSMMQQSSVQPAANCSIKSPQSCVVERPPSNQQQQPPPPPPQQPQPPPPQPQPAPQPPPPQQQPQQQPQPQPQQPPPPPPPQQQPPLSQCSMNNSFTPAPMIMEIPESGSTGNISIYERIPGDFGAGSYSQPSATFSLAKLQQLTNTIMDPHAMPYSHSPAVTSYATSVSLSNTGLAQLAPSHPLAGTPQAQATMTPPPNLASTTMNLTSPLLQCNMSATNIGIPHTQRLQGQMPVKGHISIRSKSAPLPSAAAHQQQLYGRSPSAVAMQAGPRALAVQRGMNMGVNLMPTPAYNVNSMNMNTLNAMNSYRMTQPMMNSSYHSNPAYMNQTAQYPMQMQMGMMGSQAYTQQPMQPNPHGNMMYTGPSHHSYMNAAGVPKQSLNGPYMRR

GCN5L2 = GCN5L2 (Homo sapiens, UniProt Q92830); test: Histone acetyltransferase (HAT) activity assay; assay type: biochemical;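 also: selectivity screen of BRD probe compounds across a panel of histone acetyltransferases, HAT activity in % with compound at 1 or 10 µM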
MDA-MB-436 cells = test: Confluency with BRPF inhibitors and BAY-876; assay type: cell-based, human; conditions: 3 μM, 7 days
Method: Graph indicates mean, error bars denote s.d. from eight wells (from two independent assays) and p-value was computed using the Benjamini-Hochberg t test; ***p < 0.001. d Immunoblot validation of BRPF knockdown in MDA-MB-436 cells. e Quantitative real-time PCR (RT-qPCR) validation of BRPF knockdown in MDA-MB-436 cells. […] Raw data images are available in Supplementary Fig. 4
TNBC cell lines were seeded in sterile, transparent 384-well plates at 500 cells per well in 50 µl media. Chemical probes were delivered in dimethyl sulfoxide (DMSO). Cell confluency at 7 days was evaluated using an Incucyte ZOOM live cell imaging device (Essen Bioscence) and analyzed with the Incucyte ZOOM (2016A) software based on phase contrast image.

BRPF1B = conditions: ITC data; ref 11 (suppl.); cited from earlier work
BRPF2 = conditions: ITC data; ref 11 (suppl.); cited from earlier work
BRD9 = conditions: ITC data; ref 11 (suppl.); read-out: KD (nM), off target BRD9; cited from earlier work
ATAD2A = target: T3, ATAD2A (Homo sapiens, UniProt Q6PL18); test: BROMOscan ligand-binding assay; conditions: read-out: KD (BROMOscan); sheet prints no unit (nM)
T3 sequence (Q6PL18 980-1092 limits assumed): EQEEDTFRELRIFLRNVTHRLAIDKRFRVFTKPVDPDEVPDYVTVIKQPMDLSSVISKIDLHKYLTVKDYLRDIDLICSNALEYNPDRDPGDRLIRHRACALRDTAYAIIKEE
Source text: (§1) BROMOscan is a binding assay based on the well-known KINOMEscan technology. This assay measures the binding of a DNA-tagged bromodomain to an immobilized BRD ligand. If an inhibitor is present, it will compete with the bromodomain binding to the immobilized ligand, resulting in reduction of a quantitative PCR (qPCR) signal in a dose-dependent manner.

ATAD2B = target: T4, ATAD2B (Homo sapiens, UniProt Q9ULI0); test: BROMOscan ligand-binding assay; conditions: read-out: KD (BROMOscan); sheet prints no unit (nM)
T4 sequence (Q9ULI0 951-1066 limits assumed): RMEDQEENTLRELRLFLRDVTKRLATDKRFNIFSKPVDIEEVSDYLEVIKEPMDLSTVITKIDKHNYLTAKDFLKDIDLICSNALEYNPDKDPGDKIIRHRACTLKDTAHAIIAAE
Source text: as §1

BAZ2B = target: T5, BAZ2B (Homo sapiens, UniProt Q9UIF8); test: BROMOscan ligand-binding assay; conditions: read-out: KD (BROMOscan); sheet prints no unit (nM)
T5 sequence (Q9UIF8 2060-2164 limits assumed): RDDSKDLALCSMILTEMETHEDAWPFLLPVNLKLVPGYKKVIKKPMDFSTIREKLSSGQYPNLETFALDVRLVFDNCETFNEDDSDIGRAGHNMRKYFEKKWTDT
Source text: as §1

BRD1 = target: T6, BRD1 (Homo sapiens, UniProt O95696); test: BROMOscan ligand-binding assay; conditions: read-out: KD (BROMOscan); sheet prints no unit (nM)
T6 sequence (O95696 562-666 limits assumed): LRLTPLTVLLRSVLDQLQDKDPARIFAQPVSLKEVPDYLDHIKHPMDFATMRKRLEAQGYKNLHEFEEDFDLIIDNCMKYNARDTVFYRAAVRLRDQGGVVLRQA
Source text: as §1

BRD2(1) = BRD2(1) (Homo sapiens, UniProt P25440); test: BROMOscan ligand-binding assay; conditions: read-out: KD (BROMOscan); sheet prints no unit (nM)
Chain of BRD2(1) (P25440 74-180 limits assumed): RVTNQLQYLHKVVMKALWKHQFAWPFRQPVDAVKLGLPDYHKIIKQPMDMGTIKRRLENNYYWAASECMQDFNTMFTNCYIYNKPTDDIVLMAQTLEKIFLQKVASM
Source text: as §1

BRD2(1,2) = BRD2(1,2) (Homo sapiens, UniProt P25440); test: BROMOscan ligand-binding assay; conditions: read-out: KD (BROMOscan); sheet prints no unit (nM)
Source text: as §1

BRD2(2) = BRD2(2) (Homo sapiens, UniProt P25440); test: BROMOscan ligand-binding assay; conditions: read-out: KD (BROMOscan); sheet prints no unit (nM)
Source text: as §1

BRD3(1) = BRD3(1) (Homo sapiens, UniProt Q15059); test: BROMOscan ligand-binding assay; conditions: read-out: KD (BROMOscan); sheet prints no unit (nM)
Chain of BRD3(1) (Q15059 34-140 limits assumed): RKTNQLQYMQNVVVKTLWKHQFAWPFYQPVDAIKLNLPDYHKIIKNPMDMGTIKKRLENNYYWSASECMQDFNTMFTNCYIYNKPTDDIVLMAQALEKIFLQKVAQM
Source text: as §1

BRD3(1,2) = BRD3(1,2) (Homo sapiens, UniProt Q15059); test: BROMOscan ligand-binding assay; conditions: read-out: KD (BROMOscan); sheet prints no unit (nM)
Chain of BRD3(1,2) (Q15059 24-416 limits assumed): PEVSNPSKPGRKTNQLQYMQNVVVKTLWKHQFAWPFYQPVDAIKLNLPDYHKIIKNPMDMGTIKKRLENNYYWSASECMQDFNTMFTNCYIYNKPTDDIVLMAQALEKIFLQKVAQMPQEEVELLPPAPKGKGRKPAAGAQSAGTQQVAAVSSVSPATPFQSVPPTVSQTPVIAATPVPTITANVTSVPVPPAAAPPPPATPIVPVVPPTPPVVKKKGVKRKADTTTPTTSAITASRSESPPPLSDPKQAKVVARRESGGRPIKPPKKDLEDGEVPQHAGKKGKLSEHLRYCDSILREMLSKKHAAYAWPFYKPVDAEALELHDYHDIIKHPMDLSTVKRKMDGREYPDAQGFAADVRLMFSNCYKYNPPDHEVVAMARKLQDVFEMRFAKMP
Source text: as §1

BRD3(2) = BRD3(2) (Homo sapiens, UniProt Q15059); test: BROMOscan ligand-binding assay; conditions: read-out: KD (BROMOscan); sheet prints no unit (nM)
Source text: as §1

BRD4(1) = BRD4(1) (Homo sapiens, UniProt O60885); test: BROMOscan ligand-binding assay; conditions: read-out: KD (BROMOscan); sheet prints no unit (nM)
Source text: as §1

BRD4(1,2) = BRD4(1,2) (Homo sapiens, UniProt O60885); test: BROMOscan ligand-binding assay; conditions: read-out: KD (BROMOscan); sheet prints no unit (nM)
Source text: as §1

BRD4(2) = BRD4(2) (Homo sapiens, UniProt O60885); test: BROMOscan ligand-binding assay; conditions: read-out: KD (BROMOscan); sheet prints no unit (nM)
Source text: as §1

TAF1(2) = target: T7, TAF1(2) (Homo sapiens, UniProt P21675); test: BROMOscan ligand-binding assay; conditions: read-out: KD (BROMOscan); sheet prints no unit (nM)
T7 sequence (P21675 1519-1628 limits assumed): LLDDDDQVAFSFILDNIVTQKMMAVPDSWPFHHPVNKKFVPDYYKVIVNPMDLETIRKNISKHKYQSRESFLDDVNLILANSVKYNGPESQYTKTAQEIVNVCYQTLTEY
Source text: as §1

Chain of EP300 (Q09472 whole entry, species assumed): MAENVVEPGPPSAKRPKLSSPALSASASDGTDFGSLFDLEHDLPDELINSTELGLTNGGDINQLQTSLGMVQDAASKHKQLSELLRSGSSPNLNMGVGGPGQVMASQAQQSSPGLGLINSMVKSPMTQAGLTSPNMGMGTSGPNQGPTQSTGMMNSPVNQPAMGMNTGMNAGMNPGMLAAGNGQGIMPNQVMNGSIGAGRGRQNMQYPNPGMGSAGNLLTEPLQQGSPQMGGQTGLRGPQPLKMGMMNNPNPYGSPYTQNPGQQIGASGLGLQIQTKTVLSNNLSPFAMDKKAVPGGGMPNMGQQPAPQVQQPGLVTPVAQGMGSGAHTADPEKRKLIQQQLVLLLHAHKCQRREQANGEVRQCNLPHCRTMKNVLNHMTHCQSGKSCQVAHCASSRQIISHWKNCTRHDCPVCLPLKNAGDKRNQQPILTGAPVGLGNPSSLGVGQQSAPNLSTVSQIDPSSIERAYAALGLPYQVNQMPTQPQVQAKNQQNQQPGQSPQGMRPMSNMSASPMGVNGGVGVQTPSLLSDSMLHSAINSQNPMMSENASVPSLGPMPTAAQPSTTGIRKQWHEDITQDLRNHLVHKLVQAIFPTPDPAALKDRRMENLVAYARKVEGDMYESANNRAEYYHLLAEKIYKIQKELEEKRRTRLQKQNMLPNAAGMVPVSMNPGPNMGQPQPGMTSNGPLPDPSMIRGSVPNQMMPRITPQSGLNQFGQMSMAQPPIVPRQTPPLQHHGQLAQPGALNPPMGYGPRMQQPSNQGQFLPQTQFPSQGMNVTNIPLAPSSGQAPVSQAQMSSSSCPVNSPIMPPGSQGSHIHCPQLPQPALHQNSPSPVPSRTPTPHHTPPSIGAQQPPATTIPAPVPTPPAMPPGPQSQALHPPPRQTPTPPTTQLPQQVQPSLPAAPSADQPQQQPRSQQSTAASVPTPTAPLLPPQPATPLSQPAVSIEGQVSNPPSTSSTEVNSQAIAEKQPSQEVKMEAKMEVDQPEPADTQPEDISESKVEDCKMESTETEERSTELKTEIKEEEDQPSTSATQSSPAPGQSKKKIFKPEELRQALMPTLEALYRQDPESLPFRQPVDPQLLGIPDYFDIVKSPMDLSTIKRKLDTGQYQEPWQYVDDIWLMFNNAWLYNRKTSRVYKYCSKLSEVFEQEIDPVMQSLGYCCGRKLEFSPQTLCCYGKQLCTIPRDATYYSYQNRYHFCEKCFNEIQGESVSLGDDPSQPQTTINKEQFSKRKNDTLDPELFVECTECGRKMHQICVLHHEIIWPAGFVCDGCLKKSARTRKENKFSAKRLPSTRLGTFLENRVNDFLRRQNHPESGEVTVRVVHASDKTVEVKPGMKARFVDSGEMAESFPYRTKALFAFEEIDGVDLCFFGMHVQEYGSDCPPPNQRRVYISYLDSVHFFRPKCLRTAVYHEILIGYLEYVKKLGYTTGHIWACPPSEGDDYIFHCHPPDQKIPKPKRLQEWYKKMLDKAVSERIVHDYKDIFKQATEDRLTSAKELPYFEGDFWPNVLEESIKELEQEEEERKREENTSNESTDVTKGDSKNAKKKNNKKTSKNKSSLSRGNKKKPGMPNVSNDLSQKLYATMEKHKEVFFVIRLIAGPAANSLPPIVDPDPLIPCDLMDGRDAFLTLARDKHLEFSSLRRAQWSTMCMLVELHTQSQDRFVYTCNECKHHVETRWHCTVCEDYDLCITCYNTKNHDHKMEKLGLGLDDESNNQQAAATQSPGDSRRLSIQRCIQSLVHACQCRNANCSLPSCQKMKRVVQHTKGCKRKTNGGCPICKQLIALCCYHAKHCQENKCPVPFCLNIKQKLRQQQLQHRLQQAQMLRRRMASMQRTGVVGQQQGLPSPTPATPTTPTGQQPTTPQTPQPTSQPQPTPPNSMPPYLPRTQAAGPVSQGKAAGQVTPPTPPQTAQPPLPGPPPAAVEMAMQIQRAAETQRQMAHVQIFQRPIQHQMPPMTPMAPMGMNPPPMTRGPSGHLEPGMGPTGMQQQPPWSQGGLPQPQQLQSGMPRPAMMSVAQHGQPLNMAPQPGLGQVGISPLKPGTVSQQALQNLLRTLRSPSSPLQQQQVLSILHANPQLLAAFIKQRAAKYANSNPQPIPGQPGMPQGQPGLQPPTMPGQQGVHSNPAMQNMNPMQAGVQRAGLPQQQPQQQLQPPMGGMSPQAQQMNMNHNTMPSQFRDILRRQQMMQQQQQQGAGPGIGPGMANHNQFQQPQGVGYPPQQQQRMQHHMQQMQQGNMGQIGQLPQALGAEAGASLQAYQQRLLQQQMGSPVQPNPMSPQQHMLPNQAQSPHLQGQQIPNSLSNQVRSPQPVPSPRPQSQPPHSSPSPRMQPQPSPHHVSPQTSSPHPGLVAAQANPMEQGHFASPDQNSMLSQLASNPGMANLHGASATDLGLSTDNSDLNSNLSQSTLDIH

## COc1cc(C#N)ccc1S(=O)(=O)Nc1ccc2c(c1)cc(C)c(=O)n2C [NIC57]
EP300; 1µM
  HATs Activity (%): 94%
EP300; 10µM
  HATs Activity (%): 93%
HAT1; 1µM
  HATs Activity (%): 104%
HAT1; 10µM
  HATs Activity (%): 104%
MYST1; 1µM
  HATs Activity (%): 96%
MYST1; 10µM
  HATs Activity (%): 91%
MYST3; 1µM
  HATs Activity (%): 98%
MYST3; 10µM
  HATs Activity (%): 99%
GCN5L2; 1µM
  HATs Activity (%): 100%
GCN5L2; 10µM
  HATs Activity (%): 96%
MDA-MB-436 cells
  synergy with BAY-876: no synergy
BRPF1B
  Kd: 31 nM
BRPF2
  Kd: 108 nM
BRD9
  Kd: 998 nM
ATAD2A
  Kd: > 30000 nM
ATAD2B
  Kd: > 30000 nM
BAZ2B
  Kd: 9400 nM
BRD1
  Kd: 46 nM
BRD2(1)
  Kd: 5900 nM
BRD2(1,2)
  Kd: 12000 nM
BRD2(2)
  Kd: > 30000 nM
BRD3(1)
  Kd: 7200 nM
BRD3(1,2)
  Kd: 12000 nM
BRD3(2)
  Kd: > 30000 nM
BRD4(1)
  Kd: 3300 nM
BRD4(1,2)
  Kd: 15000 nM
BRD4(2)
  Kd: > 30000 nM
TAF1(2)
  Kd: 4900 nM
